# What was measured:
# Hsc70/HSP-1 = biological target: T1, Hsc70/HSP-1 (Caenorhabditis elegans, UniProt P09446); experiment: coupled regenerative ATPase assay; type: biochemical, C. elegans; settings: concentrations well above the KD; also with BAG-1 and DNJ-13; 30 °C
# T1 construct: made in house; host or cells: bacteria
# Method: (§1) ATPase activity can be measured as described in Gaiser et al., 2009 with an ATPase assay that is carried out as a regenerative assay, wherein ADP produced during the ATPase reaction is recycled to ATP with the help of lactate dehydrogenase, NADH, phosphoenolpyruvate and pyruvate kinase. This changes the absorbance at 340 nm, when NADH is oxidized to NAD^+, giving a sensitive signal for the determination of activity. The change in absorbance at 340 nm that occurs during oxidizing of NADH to NAD^+ is measured by spectroscopic measures. Preferably, said in vitro ATPase assay is carried out at 30 °C. Preferably, said in vitro ATPase assay is carried out in the presence of 3 µM or the chaperone protein. Preferably the concentration of each of the cochaperones present is 5 µM. Preferably, the chaperones and cochaperones used are bacterially expressed proteins.
# (§2) The activity of the ATPases Hsc70/HSP-1 and Hsp90/DAF-21 were assessed in a coupled regenerative ATPase assay as described before (Gaiser et al., 2009). Reactions were measured in a Varian Cary 100 spectrophotometer (Agilent Technologies, Boeblingen, Germany) at 30 °C and the depletion of NADH was followed at 340 nm. Chaperone concentration was 3 µM and cochaperones were added, when indicated, at a concentration of 5 µM.
# Hsp90/DAF-21 = biological target: T2, Hsp90/DAF-21 (Caenorhabditis elegans, UniProt Q18688); experiment: coupled regenerative ATPase assay; type: biochemical, C. elegans; settings: concentrations well above the KD; also with AHA-1; 30 °C
# T2 construct: made in house
# Method: as §1, §2
# [1] = tested on: human tau-P301L-transfected mice brains; experiment: human tau-P301L-transfected mice treated via mini-osmotic pumps, immunohistochemistry of the hippocampus; type: in vivo, C57BL/6 mice
# Method: All protocols for animal experiments described in this study were performed according to the German laws for animal experimentation (Tierschutzgesetz) from 1998. The study was approved by the authorities of the State of Saxony-Anhalt (Landesverwaltungsamt) and performed according to institutional guidelines. Animals were maintained under constant environmental conditions with ambient temperature of 20 ± 2 °C and relative humidity of 50%. They were housed with a 12 hour light-dark cycle and given food and water ad libitum. Adult wild-type C57BL/6 mice (10 weeks old) obtained from Charles River Laboratories (Sulzfeld, Germany) were used for all studies. 4% halothane in a mixture of nitrous oxide/oxygen (ratio 70:30) was used for the induction of anesthesia and 1 to 1.5% halothane for the maintenance of anesthesia. Halothane was applied via a nose cone. Throughout all surgical procedures, the animal's body temperature was kept at 37°C using a thermostatically controlled heating blanket. Intracerebral injection of viral particles into the hippocampus of the right brain hemisphere of anesthetized mice was performed stereotactically at coordinates 2.6 mm posterior to bregma, lateral 1.0 mm and ventral 2.0 mm. 2 µl of high titer viral suspension were injected with a fixed syringe (Hamilton Company, Reno, NV, USA). After injection at a rate of 0.2 µl/min, the cannula was left in place for further 30 sec before slow withdrawal. After surgery, the wound was sutured.
# Mini-osmotic pumps (Model 2006, Alzet, Palo Alto, CA, USA) were implanted intraperitoneal (ip) through a midline incision immediately after P301L transfection. During implantation, animals remained under halothane anesthesia (details above). The pumps (internal volume: 245.6 µl) were loaded with one of the following substances: P5SA-2, P5SA-3, P5SA-4, P5SA-5 or corresponding vehicle solution (DMSO/polyethylene glycol 400 (50:50 w/w) without drug. P5SA (final concentration 1 mg/kg/day) or vehicle infusion (ip) started immediately after transplantation with a continuous flow rate of 0.15 µl/h and was maintained for 6 weeks.
# 6 weeks after P301L transfection, mice were anesthetized by ip injection of 4% chloral hydrate in PBS, transcardially perfused with ice-cold PBS and fixed with 4% paraformaldehyde in 0.1 M PBS. Immediately after fixation, animals were decapitated. The brains were removed and post-fixed in the same fixative overnight. Fixed brains were placed in a mouse brain matrix (Activational Systems Inc., Warren, USA) and transected into defined coronal brain slices (thickness 1 mm) along the anterior-posterior axis. After incubation in 30% sucrose containing PBS for cryoprotection, 20 µm-thick frontal sections, comprising the hippocampal formation, were cut using a cryostat (Microm International GmbH, Walldorf, Germany). For immunohistochemical staining, sections were washed in 0.1 M PBS. Free-floating sections were permeabilized with 0.2% Triton X-100 in PBS containing 10% normal horse serum for 30 min. After washing with PBS, unspecific antibody binding was blocked by 10% normal horse serum for 30 min, followed by a further wash in 0.1 M PBS. Then, sections were incubated with primary antibodies. For immunofluorescence staining, primary antibodies directed against total tau (human plus endogenous mice tau, K9JA) and MAP2 (microtubule-associated protein 2), respectively, were applied simultaneously. Alternatively, the primary antibodies AT8 (human phospho-tau, AT8 (Ser202/Thr205) phosphorylation site) and the human tau-specific primary antibody tau-13 were used individually. After overnight incubation at 4°C, sections were rinsed with 0.1 M PBS. Sections exposed to the primary antibody combination K9JA/MAP2 were incubated with the complementary secondary antibodies goat anti-rabbit IgG Alexa Fluor 488 and goat anti-mouse IgG Alexa Fluor 594. AT8 and tau-13 were visualized with goat anti-mouse IgG Alexa Fluor 594. […]
# [2] = 1 mg/kg/day, continuous ip infusion for 6 weeks
# T1 sequence (P09446 whole entry): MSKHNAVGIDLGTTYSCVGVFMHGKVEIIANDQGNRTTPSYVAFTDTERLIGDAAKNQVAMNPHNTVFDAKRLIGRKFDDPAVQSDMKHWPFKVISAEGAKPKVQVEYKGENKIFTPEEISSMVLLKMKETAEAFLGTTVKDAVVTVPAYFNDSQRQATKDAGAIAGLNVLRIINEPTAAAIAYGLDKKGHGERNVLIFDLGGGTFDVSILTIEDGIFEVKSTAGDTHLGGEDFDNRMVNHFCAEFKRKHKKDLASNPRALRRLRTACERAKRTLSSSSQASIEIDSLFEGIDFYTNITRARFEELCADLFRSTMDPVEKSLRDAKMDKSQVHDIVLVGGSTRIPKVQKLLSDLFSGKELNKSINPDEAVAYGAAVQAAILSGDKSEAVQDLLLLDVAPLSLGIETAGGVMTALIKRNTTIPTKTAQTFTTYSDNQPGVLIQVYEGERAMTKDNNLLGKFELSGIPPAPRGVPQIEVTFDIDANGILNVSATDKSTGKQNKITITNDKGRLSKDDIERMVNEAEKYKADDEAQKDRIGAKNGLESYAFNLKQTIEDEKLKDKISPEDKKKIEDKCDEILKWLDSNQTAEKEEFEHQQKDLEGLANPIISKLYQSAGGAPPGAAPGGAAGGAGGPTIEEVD
Compound,ATPase activity of Hsc70/HSP-1 (Hsc70/HSP-1),ATPase activity of Hsp90/DAF-21 (Hsp90/DAF-21),"numbers of AT8-positive perikarya of CA3 pyramidal neurons per hippocampal slice ([1]; 1 mg/kg/day ip for 6 weeks, mean ± SEM, vehicle 7.0 ± 2.0, P< 0.0001)","phosphorylation of human tau-P301L at its AT8 epitope (Ser202/Thr205) [1, 2]","tau-P301L-dependent localization of total tau signals in the perikarya of CA1 and CA3 pyramidal neurons [1, 2]","tau-P301L-dependent pattern of neuronal degeneration in the hippocampal formation [1, 2]"
CNC(=O)c1c(NC(=O)COCC(=O)Nc2sc3c(c2C(=O)NC)CCC3)sc2c1CCC2 [P5SA-5],no additional effect,no effect,2.2 ± 1.4,remarkably reduced,remained unaffected,decreased
O=c1cc2nc(-c3ccc(F)cc3)nc(SCc3ccc(Br)cc3)n2[nH]1 [P5SA-4],no additional effect,no effect,,diminished,,not observed
FC(F)(F)c1c2c(nc3c(-c4ccc(Cl)cc4)cnn13)CCC2 [P5SA-1],no additional effect,no effect,,,,
COc1ccc(-c2nc(Cc3ccc(Cl)cc3)no2)cc1OC [P5SA-2],no additional effect,no effect,,diminished,,not observed
CN1CCc2c(sc(-n3cccc3)c2CNC(=O)NC23CC4CC(CC(C4)C2)C3)C1 [P5SA-3],,,,diminished,,not observed
